Reference: patent US20240397944A1, “METHODS FOR BIOFILM DISRUPTION” (Neolixir Limited, priority 2021, published 2024)
≈ marks a conversion by molar mass, not a printed value.

Columns and labels:
[1] = cited from earlier work
[2] = Octanol-Water; cited from earlier work
[3] = system: Pseudomonas aeruginosa (WACC91 and PA-001) biofilm; assay: Crystal violet staining of biofilm-protected P. aeruginosa microcolonies; type: cell-based
Experimental: Laboratory strains of Pseudomonas aeruginosa (WACC91 and PA-001) were thawed (stored as 50% glycerol stocks at −70° C.+2° C.) and streaked out on blood agar plates. […] In this case cultures were propagated to stationary phase to induce stress responses needed to induce biofilm formation on seeding for treatment. […] Biofilm formation was complete approximately 24-48 hours following seeding, this was confirmed by a minimum of 1.8 absorbance units at 600 nm. Prebiotic solution collected from C1 was applied to B0 cultures that had achieved biofilm formation. A 10 dose dilution series of the prebiotic test solution in PMM was prepared (Table 2) to determine the optimal dose range for biofilm disruption of B0 cultures, with 50 μl total volume added to each B0 culture. […] The CV stain was solubilised with 125 ul of 30% acetic acid and absorbance to indicate biofilm density (also referred to as biofilm biomass) was quantified at 550 nm following an incubation of 15 minutes at room temperature. […] Biofilm formation was complete approximately 24-48 hours following seeding as confirmed by a minimum of 1.8 absorbance units at 600 nm. […] The CV stain was solubilised with 125 ul of 30% acetic acid and absorbance to indicate biofilm biomass quantified at 550 nm following an incubation of 15 minutes.

[4] = system: Pseudomonas aeruginosa (WACC91) biofilm-protected microcolonies; assay: Resazurin staining, bacterial metabolic activity of biofilm-protected cultures; type: cell-based
Experimental: Laboratory strains of Pseudomonas aeruginosa (WACC91 and PA-001) were thawed (stored as 50% glycerol stocks at −70° C.+2° C.) and streaked out on blood agar plates. […] In this case cultures were propagated to stationary phase to induce stress responses needed to induce biofilm formation on seeding for treatment.
Biofilm formation was complete approximately 24-48 hours following seeding, this was confirmed by a minimum of 1.8 absorbance units at 600 nm.
Prebiotic solution collected from C1 was applied to B0 cultures that had achieved biofilm formation. A 10 dose dilution series of the prebiotic test solution in PMM was prepared (Table 2) to determine the optimal dose range for biofilm disruption of B0 cultures, with 50 μl total volume added to each B0 culture.
A 12-fold serial dilution of tobramycin (99% pure tobramycin sulfate powder, Research Products International) standards were prepared in PMM (8 ng/ml-16 ug/ml), to act as a reference point for assessing biofilm disruption activity observed by the prebiotic test treatment (Table 2). Tobramycin is an antibiotic commonly used to treat chronic respiratory bacterial infections, particularly Pseudomonas aeruginosa. A total of 50 ul of tobramycin standards were added to B0 cultures that had achieved biofilm formation. […]

[5] = system: P. aeruginosa (ATCC 27853); assay: Antimicrobial activity on planktonic bacteria, flow cytometry and broth microdilution; settings: for MIC: Pseudomonas aeruginosa, ATCC27853, read-out: minimum inhibitory concentration (MIC); for concentration at which first significant phenotypic change (decrease in SYTO 9 fluorescence) was observed: flow cytometry, 3 hours
Experimental: (§3) This was undertaken in parallel with a conventional broth microdilution (BMD) assay.
(§4) Two-fold serial dilutions of D- or L-lactate were performed in a 96-well plate, ranging from 0.008 grams per litre to 8 g/L with a volume of 50 μL per well.
(§5) The bacterial suspensions were prepared from cultures grown overnight in trypticase soya broth (TSB). Each culture was diluted 1:1000 in Hanks buffered saline solution (HBSS), stained with 1 μL of SYTO® 9, incubated for a minimum of 8 minutes with shaking, and enumerated by flow cytometry. The TSB cultures were then adjusted to 2×10^5 cells per mL in CAMHB.
(§6) To the replicate dilution series of lactic acids, 50 μL of bacterial suspension was added for a final volume of 100 μL per well, each row containing a concentration gradient ranging from 0.004 to 4 g/L. There were 3 organisms per plate (E. coli, P. aeruginosa, S. aureus), set up in duplicate. […] These wells were representative of the suspension density at the time of inoculation.
(§7) For conventional BMD, the incubation time was 24 hours. For flow cytometry, the incubation time was 3 hours. For flow cytometry, following incubation 100 μL of HBSS, containing SYTO® 9 at a concentration of 10 μM was added to each well of the plate for a final dye concentration of 5 μM. The plates were then incubated at ambient temperature in the dark for 10 minutes, loaded onto the Attune™ Autosampler, and the data acquired. The plates were run simultaneously on two different Attune™ cytometers.

[6] = system: S. aureus (ATCC 33592); assay: as above; settings: for MIC: Staphylococcus aureus, ATCC33592, read-out: minimum inhibitory concentration (MIC); for concentration at which first significant phenotypic change (decrease in SYTO 9 fluorescence) was observed: flow cytometry, 3 hours
Experimental: as §3, §4, §5, §6, §7

[7] = system: E. coli (ATCC 25922); assay: as above; settings: for MIC: Escherichia coli, ATCC25922, read-out: minimum inhibitory concentration (MIC); for concentration at which first significant phenotypic change (decrease in SYTO 9 fluorescence) was observed: flow cytometry, 3 hours
Experimental: as §3, §4, §5, §6, §7

[8] = system: P. aeruginosa clinical isolates from patients with cystic fibrosis; assay: Resazurin staining of biofilm microcolonies from clinical isolates; settings: for Altered metabolism with treatment (% of isolates) / Metabolism change (% from baseline): 0.5-1.25 ug/ml, 24 hours
Experimental: Cultures of interest were thawed and streaked out on blood agar plates and allowed to grow at 37° C., 5% CO2 for 12-24 hours until suitable growth was achieved to enable further culturing. An isolated colony was looped into 5 ml of LB broth and incubated overnight at 37° C., 5% CO2.
Stock cultures were diluted 1:1000 in 1% of appropriate media (LB for mucoid P. aeruginosa strains; M63 medium was used for P. aeruginosa rough strains 001-11R; PMM for all other strains) to achieve approximately 10^8 cfu/ml (confirmed by measuring 0.02 absorbance units, approximately 1.8 ul in 2 ml of media). Diluted working cultures were mixed well and seeded at 200 ul/well across a 96 well microtitre plate, with biofilm formation complete approximately 24-48 hours following seeding.
Treatments were completed in duplicate for all bacterial strains across the dose range used.
Viable cells reduce the blue resazurin dye to the pink-fluorescent resorufin form. Following incubation fluorescence was quantified by excitation wavelength of 540 nm and an emission wavelength of 590 nm using Enspire microplate reader.

[9] = system: P. aeruginosa clinical isolates from patients with cystic fibrosis; assay: Crystal violet staining of biofilm microcolonies from clinical isolates; type: cell-based; settings: for Biofilm breakdown (% from baseline) / Isolates responsive to breakdown (% of isolates): 0.5-1.25 ug/ml, 24 hours
[10] = rat, 4 h; cited from earlier work
[11] = rabbit; cited from earlier work
[12] = system: S. epidermidis biofilm; assay: Crystal violet biofilm formation and mature biofilm assay; type: cell-based, Staphylococcus epidermidis; settings: added at t=0 (de novo forming) or t=24 hours (established), pH 7.0, FIG. 5
Experimental: (§1) After addition of treatments, all plates were then incubated for 24 hours at 37° C.
(§2) Following incubation at room temperature for 15 minutes the microtiter plates were washed 3-4 times with water by submerging in water, with blotting to rid the plate of all excess cells and dye. Plates were left to dry overnight. The CV stain was solubilised with 125 ul of 30% acetic acid and absorbance to indicate biofilm biomass quantified at 550 nm following an incubation of 15 minutes, normalised to vehicle only.

[13] = system: Staphylococcus aureus biofilm; assay: as above; type: cell-based; settings: added at t=0 (de novo forming) or t=24 hours (established), pH 7.0, FIG. 5
Experimental: as §1, §2

[14] = system: Pseudomonas aeruginosa biofilm; assay: as above; type: cell-based; settings: added at t=0 (de novo forming) or t=24 hours (established), pH 7.0, FIG. 5
Experimental: as §1, §2

## O=C(O)C(O)c1ccccc1 (stereo not drawn) [2-hydroxy-2-phenylacetic acid]
[1]
  Water solubility: 1.14 mol/L
[2]
  Log P: 0.67

## NC[C@H]1O[C@H](O[C@H]2[C@H](O)[C@@H](O[C@H]3O[C@H](CO)[C@@H](O)[C@H](N)[C@H]3O)[C@H](N)C[C@@H]2N)[C@H](N)C[C@@H]1O [tobramycin]
[3]; tobramycin 16 ug/ml, bioactive dose
  reduced biofilm density: 80-90%
[4]; WACC91, 24 hrs treatment, supernatants
  concentrations at which reduced metabolic activity was observed: 1 to 16 µg/mL
[4]; bioactive dose 16 ug/ml
  inhibition of metabolic activity relative to prebiotic test solution (90%): comparable

## C[C@@H](O)C(=O)O [D-lactic acid, (2R)-2-hydroxypropanoic acid]
[5]
  MIC: 4000 µg/mL (≈ 44.4 mM)
  concentration at which first significant phenotypic change (decrease in SYTO 9 fluorescence) was observed: 1 g/L
[3]; pure grade standards run against prebiotic test solution dilutions, methods of Example 1
  active dose range for biofilm disruption: 0.25 to 1.25 mg/mL
[6]
  MIC: 4000 µg/mL (≈ 44.4 mM)
  concentration at which first significant phenotypic change (decrease in SYTO 9 fluorescence) was observed: 1 g/L
[7]
  MIC: 4000 µg/mL (≈ 44.4 mM)
  concentration at which first significant phenotypic change (decrease in SYTO 9 fluorescence) was observed: 1 g/L
[8]; Mucoid isolates
  Altered metabolism with treatment (% of isolates): 75 % of isolates
  Metabolism change (% from baseline): 37 % from baseline
[8]; Non-mucoid isolates
  Altered metabolism with treatment (% of isolates): 69.2 % of isolates
  Metabolism change (% from baseline): 46.1 % from baseline
[8]; all strains tested
  share of all strains tested showing a change in metabolic activity: More than 65%
[9]; Mucoid isolates
  Biofilm breakdown (% from baseline): 17.2 % from baseline
  Isolates responsive to breakdown (% of isolates): 60 % of isolates
[9]; Non-mucoid isolates
  Biofilm breakdown (% from baseline): 23 % from baseline
  Isolates responsive to breakdown (% of isolates): 53.8 % of isolates
[9]; all strains tested
  share of all strains showing evidence of biofilm disruption: Greater than 50%

## CC(O)C(=O)O (stereo not drawn) [2-hydroxypropanoic acid]
[10]
  LC50 Inhalation: >7.94 mg/L (rat) 4 h
[11]
  LD50 Dermal: >2 g/kg (rabbit)

## CC(O)C(=O)O (racemic) [racemic mix (D/L), D/L lactic acid]
[12]
  biofilm mass (crystal violet) compared to baseline: variable results
[13]
  biofilm mass (crystal violet) compared to baseline: variable results
[14]
  biofilm mass (crystal violet) compared to baseline: variable results

## CCC(O)C(=O)O (stereo not drawn) [2-hydroxybutanoic acid]
[1]
  Water solubility: 1.93 mol/L

## CCCCC(O)C(=O)O (stereo not drawn) [2-hydroxyhexanoic acid]
[1]
  Water solubility: 0.27 mol/L

## C[C@H](O)C(=O)O [L-lactic acid, reference compound]
[12]
  biofilm mass (crystal violet) compared to baseline: not
[5]
  MIC: 4000 µg/mL (≈ 44.4 mM)
  concentration at which first significant phenotypic change (decrease in SYTO 9 fluorescence) was observed: 1 g/L
[13]
  biofilm mass (crystal violet) compared to baseline: not
[14]
  biofilm mass (crystal violet) compared to baseline: not
[6]
  MIC: 4000 µg/mL (≈ 44.4 mM)
  concentration at which first significant phenotypic change (decrease in SYTO 9 fluorescence) was observed: 1 g/L
[7]
  MIC: 4000 µg/mL (≈ 44.4 mM)
  concentration at which first significant phenotypic change (decrease in SYTO 9 fluorescence) was observed: 1 g/L

## CCCC(O)C(=O)O (stereo not drawn) [2-hydroxypentanoic acid]
[1]
  Water solubility: 1.64 mol/L
